IC50 data for 31 compounds are collected here from patent US11981661B2, “Heterocyclic compounds” (Hoffmann-La Roche Inc., priority 2020, dated 2024).

In this assay the target is T1, MAGL (Homo sapiens, UniProt Q99685).
T1 sequence (Q99685 1-303): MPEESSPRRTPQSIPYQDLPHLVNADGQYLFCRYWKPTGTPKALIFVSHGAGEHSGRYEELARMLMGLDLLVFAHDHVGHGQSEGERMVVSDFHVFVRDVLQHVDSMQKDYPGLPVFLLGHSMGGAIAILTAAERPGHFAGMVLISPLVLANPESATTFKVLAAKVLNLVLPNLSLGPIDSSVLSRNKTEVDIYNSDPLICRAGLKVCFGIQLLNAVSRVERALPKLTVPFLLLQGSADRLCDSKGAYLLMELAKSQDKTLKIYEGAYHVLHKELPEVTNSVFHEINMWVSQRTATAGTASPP
Kind of assay: 2-AG assay (MAGL inhibitory activity, hydrolysis of 2-arachidonoylglycerol followed by mass spectrometry). Format: biochemical. Conditions: 50 pM MAGL, 8 μM 2-arachidonoylglycerol, 15 min preincubation, 30 min incubation at RT, concentration range 12.5 μM to 0.8 pM. In outline:
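50 pM MAGL preincubated 15 min at RT with compound (12.5 μM to 0.8 pM) in 50 mM TRIS, 1 mM EDTA, 0.01% Tween, then 8 μM 2-arachidonoylglycerol for 30 min at RT. Arachidonic acid measured by RapidFire SPE–triple quadrupole MS in negative mode, normalised to d8-arachidonic acid.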

Each structure is given as a SMILES string.

In general, IC50 refers to the concentration that gives 50% inhibition. A high value points to a need for much substance. With `CS(=O)(=O)c1ccc(-c2ccc(C3CN(C(=O)CC[C@@H]4COC(=O)N4)C3)nc2)c(Cl)c1` [Example 108, (4R)-4-[3-[3-[5-(2-Chloro-4-methylsulfonyl-phenyl)-2-pyridyl]azetidin-1-yl]-3-oxo-propyl]oxazolidin-2-one], the IC50 is 7 nM.
In the case of `O=C1N[C@H](CCC(=O)N2CC(c3cccc(C4(C(F)(F)F)CC4)c3)C2)CO1` [Example 109, (4R)-4-[3-Oxo-3-[3-[3-[1-(trifluoromethyl)cyclopropyl]phenyl]azetidin-1-yl]propyl]oxazolidin-2-one] it was 39 nM; in that of `CS(=O)(=O)c1ccc(-c2cnc(C3CN(C(=O)CC[C@@H]4COC(=O)N4)C3)cn2)c(Cl)c1` [Example 110, (4R)-4-[3-[3-[5-(2-Chloro-4-methylsulfonyl-phenyl)pyrazin-2-yl]azetidin-1-yl]-3-oxo-propyl]oxazolidin-2-one], 70 nM.
For `CC(C)(C)S(=O)(=O)c1ccc(C2CN(C(=O)CC[C@@H]3COC(=O)N3)C2)cn1` [Example 111, (4R)-4-[3-[3-(6-tert-Butylsulfonyl-3-pyridyl)azetidin-1-yl]-3-oxo-propyl]oxazolidin-2-one] the value was 1170 nM; for `O=C1N[C@H](CCC(=O)N2CC(c3ncc(-c4ccc(Cl)cc4F)cn3)C2)CO1` [Example 112, (4R)-4-[3-[3-[5-(4-Chloro-2-fluoro-phenyl)pyrimidin-2-yl]azetidin-1-yl]-3-oxo-propyl]oxazolidin-2-one], 43 nM.
In the case of `O=C1N[C@H](CCC(=O)N2CC(c3ccc(-c4ccc(Cl)cc4F)cn3)C2)CO1` [Example 113, (4R)-4-[3-[3-[5-(4-Chloro-2-fluoro-phenyl)-2-pyridyl]azetidin-1-yl]-3-oxo-propyl]oxazolidin-2-one] it was 3 nM.
As to `O=C1N[C@H](CCC(=O)N2CC(c3ccc(-c4ccc(Cl)cc4Cl)cn3)C2)CO1` [Example 114, (4R)-4-[3-[3-[5-(2,4-Dichloro-phenyl)-2-pyridyl]azetidin-1-yl]-3-oxo-propyl]oxazolidin-2-one], half-maximal inhibition (IC50) required 0.18 nM.
For `CS(=O)(=O)c1cc(Cl)cnc1-c1ccc(C2CN(C(=O)CC[C@@H]3COC(=O)N3)C2)cc1` [Example 115, (4R)-4-[3-[3-[4-(5-Chloro-3-methylsulfonyl-2-pyridyl)phenyl]azetidin-1-yl]-3-oxo-propyl]oxazolidin-2-one] the value was 3 nM; for `CS(=O)(=O)c1ccc(-c2ccc(C3CN(C(=O)CC[C@@H]4COC(=O)N4)C3)cn2)c(Cl)c1` [Example 116, (4R)-4-[3-[3-[6-(2-Chloro-4-methylsulfonyl-phenyl)-3-pyridyl]azetidin-1-yl]-3-oxo-propyl]oxazolidin-2-one], 160 nM.
In the case of `CS(=O)(=O)c1cc(Cl)ccc1-c1ccc(C2CN(C(=O)CC[C@@H]3COC(=O)N3)C2)cn1` [Example 117, (4R)-4-[3-[3-[6-(4-Chloro-2-methylsulfonyl-phenyl)-3-pyridyl]azetidin-1-yl]-3-oxo-propyl]oxazolidin-2-one] it was 10 nM; in that of `CS(=O)(=O)c1cc(Cl)ncc1-c1ccc(C2CN(C(=O)CC[C@@H]3COC(=O)N3)C2)cc1` [Example 118, (4R)-4-[3-[3-[4-(6-Chloro-4-methylsulfonyl-3-pyridyl)phenyl]azetidin-1-yl]-3-oxo-propyl] oxazolidin-2-one], 12 nM.
In the case of `O=C1N[C@H](CCC(=O)N2CC(c3ccc(-c4cnc(C(F)(F)F)cn4)cc3)C2)CO1` [Example 119, (4R)-4-[3-Oxo-3-[3-[4-[5-(trifluoromethyl)pyrazin-2-yl]phenyl]azetidin-1-yl]propyl] oxazolidin-2-one] it was 33 nM; in that of `CS(=O)(=O)c1cc(C2CN(C(=O)CC[C@@H]3COC(=O)N3)C2)ccc1-c1ccc(Cl)cc1F` [Example 120, (4R)-4-[3-[3-[4-(4-Chloro-2-fluoro-phenyl)-3-methylsulfonyl-phenyl]azetidin-1-yl]-3-oxo-propyl]oxazolidin-2-one], 19 nM.
`CS(=O)(=O)c1cc(Cl)ccc1-c1ccc(C2CN(C(=O)CC[C@@H]3COC(=O)N3)C2)nc1` [Example 121, (4R)-4-[3-[3-[5-(4-Chloro-2-methylsulfonyl-phenyl)-2-pyridyl]azetidin-1-yl]-3-oxo-propyl]oxazolidin-2-one] yielded an IC50 of 2 nM. This IC50 is about 9.5-fold lower than that of the compound before.
For `CS(=O)(=O)c1ccc(-c2cnc(C3CN(C(=O)CC[C@@H]4COC(=O)N4)C3)nc2)c(Cl)c1` [Example 122, (4R)-4-[3-[3-[5-(2-Chloro-4-methylsulfonyl-phenyl)pyrimidin-2-yl]azetidin-1-yl]-3-oxo-propyl] oxazolidin-2-one] the value was 379 nM.
For `CS(=O)(=O)c1ccc(-c2ncc(C3CN(C(=O)CC[C@@H]4COC(=O)N4)C3)cn2)c(Cl)c1` [Example 123, (4R)-4-[3-[3-[2-(2-Chloro-4-methylsulfonyl-phenyl)pyrimidin-5-yl]azetidin-1-yl]-3-oxo-propyl] oxazolidin-2-one] the value was 982 nM; for `CS(=O)(=O)c1ncc(C(F)(F)F)cc1-c1ccc(C2CN(C(=O)CC[C@@H]3COC(=O)N3)C2)cc1` [Example 124, (4R)-4-[3-[3-[4-[2-Methyl-sulfonyl-5-(trifluoromethyl)-3-pyridyl]phenyl]azetidin-1-yl]-3-oxo-propyl] oxazolidin-2-one], 3 nM.
In the case of `O=C1N[C@H](CCC(=O)N2CC3(CC(Cc4ccc(C(F)(F)F)nc4)C3)C2)CO1` [Example 125, (4R)-4-[3-Oxo-3-[6-[[6-(trifluoro-methyl)-3-pyridyl]methyl]-2-azaspiro[3.3]heptan-2-yl]propyl] oxazolidin-2-one] it was 9 nM; in that of `O=C1N[C@H](CCC(=O)N2CC3(CCN(Cc4ccc(C(F)(F)F)cc4F)CC3)C2)CO1` [Example 126, (4R)-4-[3-[7-[[2-Fluoro-4-(trifluoro-methyl)phenyl]methyl]-2,7-diazaspiro[3.5]nonan-2-yl]-3-oxo-propyl] oxazolidin-2-one], 25 nM.
`O=C1N[C@H](CCC(=O)N2CC(c3ccc(Oc4nccc(C(F)(F)F)n4)cc3)C2)CO1` [Example 127, (4R)-4-[3-Oxo-3-[3-[4-[4-(trifluoro-methyl)pyrimidin-2-yl]oxyphenyl]azetidin-1-yl]propyl]oxazolidin-2-one] came in with an IC50 of 1800 nM.
For `CS(=O)(=O)c1ccc(-c2ccc(C3CN(C(=O)CC[C@@H]4COC(=O)N4)C3)cc2)c(C(F)(F)F)c1` [Example 128, (4R)-4-[3-[3-[4-[4-Methyl-sulfonyl-2-(trifluoromethyl)phenyl]phenyl]azetidin-1-yl]-3-oxo-propyl] oxazolidin-2-one] the value was 0.26 nM; for `O=C1N[C@H](CCC(=O)N2CC(c3ccc(N4CCC(C(F)(F)F)C4)c(F)c3)C2)CO1` (stereo partly drawn) [Example 129, (4R)-4-[3-[3-[3-Fluoro-4-[3-(trifluoromethyl)pyrrolidin-1-yl]phenyl]azetidin-1-yl]-3-oxo-propyl]oxazolidin-2-one], 3 nM.
In the case of `O=C1N[C@H](CCC(=O)N2CC(c3ccc(C4CCS(=O)(=O)C4)cc3)C2)CO1` (stereo partly drawn) [Example 130, (4R)-4-[3-[3-[4-(1,1-Dioxothiolan-3-yl)phenyl]azetidin-1-yl]-3-oxo-propyl] oxazolidin-2-one] it was 251 nM.
`O=C1N[C@H](CCC(=O)N2CC(c3ccc(N4CC5(CCCC5)C4)cc3)C2)CO1` [Example 131] came in with an IC50 of 1 nM. This IC50 lies about 250-fold lower than the previous one.
In the case of `O=C1N[C@H](CCC(=O)N2CC(c3ccc(N4CC5(C4)CC(F)(F)C5)cc3)C2)CO1` [Example 132, (4R)-4-[3-[3-[4-(6,6-Difluoro-2-azaspiro[3.3]heptan-2-yl)phenyl]azetidin-1-yl]-3-oxo-propyl]oxazolidin-2-one] it was 9 nM.
`O=C1N[C@H](CCC(=O)N2CC(c3ccc(C4CC(C(F)(F)F)C4)cc3)C2)CO1` (stereo partly drawn) [Example 133, (4R)-4-[3-Oxo-3-[3-[4-[3-(trifluoro-methyl)cyclobutyl]phenyl]azetidin-1-yl]propyl]oxazolidin-2-one]: inhibition was half-maximal at 2 nM (IC50).
In the case of `O=C1N[C@H](CCC(=O)N2CC(c3ccc(N4CC(C(F)(F)F)C4)c(F)c3)C2)CO1` [Example 134, (4R)-4-[3-[3-[3-Fluoro-4-[3-(trifluoromethyl)azetidin-1-yl]phenyl]azetidin-1-yl]-3-oxo-propyl] oxazolidin-2-one] it was 16 nM; in that of `O=C1N[C@H](CCC(=O)N2CC(c3ccc(N4CCC(C(F)(F)F)C4)cc3)C2)CO1` (stereo partly drawn) [Example 135, (4R)-4-[3-Oxo-3-[3-[4-[3-(trifluoro-methyl)pyrrolidin-1-yl]phenyl]azetidin-1-yl]propyl] oxazolidin-2-one], 5 nM; in that of `O=C1N[C@H](CCC(=O)N2CC3(CCC(Oc4ccc(C(F)(F)F)nn4)CC3)C2)CO1` [Example 136, (4R)-4-[3-Oxo-3-[7-[6-(trifluoro-methyl)pyridazin-3-yl]oxy-2-azaspiro[3.5]nonan-2-yl]propyl] oxazolidin-2-one], 22 nM.
For `CS(=O)(=O)c1cc(F)ccc1OC1CCC2(CC1)CN(C(=O)CC[C@@H]1COC(=O)N1)C2` [Example 137, (4R)-4-[3-[7-(4-Fluoro-2-methyl-sulfonyl-phenoxy)-2-azaspiro[3.5]nonan-2-yl]-3-oxo-propyl] oxazolidin-2-one] the value was 43 nM; for `O=C1N[C@H](CCC(=O)N2CC3(CCC(NS(=O)(=O)c4cccc(OC(F)(F)F)c4)CC3)C2)CO1` [Example 138, N-[2-[3-[(4R)-2-Oxooxazolidin-4-yl]propanoyl]-2-azaspiro[3.5]nonan-7-yl]-3-(trifluoro-methoxy)benzene-sulfonamide], 62 nM.
